According to US20220265629A1, “TREATMENT OF SYSTOLIC DYSFUNCTION AND HEART FAILURE WITH REDUCED EJECTION FRACTION WITH THE COMPOUND (R)-4-(1-((3-(DIFLUOROMETHYL)-1-METHYL-1H-PYRAZOL-4-YL)SULFONYL)-1-FLUOROETHYL)-N-(ISOXAZOL-3-YL)PIPERIDINE-1-CARBOXAMIDE” (MyoKardia, Inc., priority 2019, published 2022):

System: patients with stable HFrEF
Assay: HFrEF study Part 2 (MAD Cohorts A-D): safety (TEAEs, serum troponin, ECG, Holter)
Assay type: in vivo, human
Experimental: Safety and efficacy assessments were conducted by measuring patients' vital signs and laboratory parameters; performing TTE to measure, e.g., systolic ejection time; performing electrocardiograms (e.g., 12-lead ECG), real-time ECG telemetry (e.g., at least 3-lead), and Holter ECG; and measuring levels of troponin (e.g., troponin I and/or troponin T) and […].
The following safety laboratory parameters were measured: (1) hematology parameters (CBC, including differential count, and platelet count); (2) serum chemistry parameters (e.g., sodium, potassium, chloride, bicarbonate, calcium, magnesium, urea, creatinine, ALP, ALT, AST, total bilirubin, glucose, and CPK); and (3) urinalysis parameters (e.g., pH, protein, glucose, leukocyte esterase, and blood).
Abnormal and/or rising troponin values (as per investigator's judgment and taking into account potential baseline troponin elevation frequently observed in heart failure) led to the patient being clinically evaluated for possible myocardial ischemia. […] The entire clinical context (e.g., signs, symptoms, new ECG changes, new troponin, and CK-MB abnormalities) was evaluated and correlated with any other relevant clinical findings, patient's medical history, and laboratory data to determine the clinical significance of the findings. Troponin results performed on Day 2 of Part 1 (SAD) and Day 10 of Part 2 (MAD) at a local lab were reviewed prior to the patient being discharged the next day.

[1] = Cohort A + C 75 mg BID (n = 15)

## Cn1cc(S(=O)(=O)[C@@](C)(F)C2CCN(C(=O)Nc3ccon3)CC2)c(C(F)F)n1 [Compound I, (R)-4-(1-((3-(difluoromethyl)-1-methyl-1H-pyrazol-4-yl)sulfonyl)-1-fluoroethyl)-N-(isoxazol-3-yl)piperidine-1-carboxamide]
50 mg
  patients with troponin increase: 2/9
75 mg
  patients with troponin increase: 2/15
100 mg
  patients with troponin increase: 3/6
[1]
  Any AE leading to death, number of patients (%): 0 n (%)
  Any TEAE leading to permanent treatment discontinuation, number of patients (%): 0 n (%)
  Any TEAE, number of patients (%): 6 (40.0) n (%)
  Any serious TEAE, number of patients (%): 1 (6.7) n (%)
  TEAE: Abdominal discomfort: 0 n (%)
  TEAE: Alanine aminotransferase increased: 1 (6.7) n (%)
  TEAE: Anemia: 1 (6.7) n (%)
  TEAE: Application site erosion: 0 n (%)
  TEAE: Arthralgia: 0 n (%)
  TEAE: Arthropod bite: 0 n (%)
  TEAE: Back pain: 0 n (%)
  TEAE: Blood creatine phosphokinase increased: 0 n (%)
  TEAE: Blood creatinine increased: 0 n (%)
  TEAE: Cough: 1 (6.7) n (%)
  TEAE: Dermatitis contact: 0 n (%)
  TEAE: Dry eye: 0 n (%)
  TEAE: Fatigue: 2 (13.3) n (%)
  TEAE: Fluid overload: 0 n (%)
  TEAE: Gingival pain: 0 n (%)
  TEAE: Hyperkalemia: 0 n (%)
  TEAE: Infusion site erythema: 0 n (%)
  TEAE: Nasopharyngitis: 0 n (%)
  TEAE: Rash: 0 n (%)
  TEAE: Renal failure: 0 n (%)
  TEAE: Renal impairment: 0 n (%)
  TEAE: Testicular pain: 0 n (%)
  TEAE: Troponin increased: 1 (6.7) n (%)
  TEAE: Ventricular tachycardia: 0 n (%)
Cohort B 50 mg BID (n = 9)
  Any AE leading to death, number of patients (%): 0 n (%)
  Any TEAE leading to permanent treatment discontinuation, number of patients (%): 0 n (%)
  Any TEAE, number of patients (%): 7 (77.8) n (%)
  Any serious TEAE, number of patients (%): 0 n (%)
  TEAE: Abdominal discomfort: 1 (11.1) n (%)
  TEAE: Alanine aminotransferase increased: 1 (11.1) n (%)
  TEAE: Anemia: 0 n (%)
  TEAE: Application site erosion: 1 (11.1) n (%)
  TEAE: Arthralgia: 0 n (%)
  TEAE: Arthropod bite: 0 n (%)
  TEAE: Back pain: 0 n (%)
  TEAE: Blood creatine phosphokinase increased: 1 (11.1) n (%)
  TEAE: Blood creatinine increased: 0 n (%)
  TEAE: Cough: 0 n (%)
  TEAE: Dermatitis contact: 2 (22.2) n (%)
  TEAE: Dry eye: 0 n (%)
  TEAE: Fatigue: 0 n (%)
  TEAE: Fluid overload: 1 (11.1) n (%)
  TEAE: Gingival pain: 0 n (%)
  TEAE: Hyperkalemia: 1 (11.1) n (%)
  TEAE: Infusion site erythema: 1 (11.1) n (%)
  TEAE: Nasopharyngitis: 0 n (%)
  TEAE: Rash: 1 (11.1) n (%)
  TEAE: Renal failure: 0 n (%)
  TEAE: Renal impairment: 0 n (%)
  TEAE: Testicular pain: 0 n (%)
  TEAE: Troponin increased: 0 n (%)
  TEAE: Ventricular tachycardia: 1 (11.1) n (%)
Cohort D 100 mg BID (n = 6)
  Any AE leading to death, number of patients (%): 0 n (%)
  Any TEAE leading to permanent treatment discontinuation, number of patients (%): 0 n (%)
  Any TEAE, number of patients (%): 4 (66.7) n (%)
  Any serious TEAE, number of patients (%): 0 n (%)
  TEAE: Abdominal discomfort: 0 n (%)
  TEAE: Alanine aminotransferase increased: 0 n (%)
  TEAE: Anemia: 0 n (%)
